Source: PubChem BioAssay AID489040 (Sanford-Burnham Center for Chemical Genomics, 2010)
Activity calls are given as the source filed them.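 The calls were made as follows: active = mean half-maximal activating concentration from the dose-response fit at or below a set limit; inactive = the rest.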

The compounds below were run against CHO-XBP1 luciferase reporter, IRE1-XBP1 UPR activation (assay: XBP1 luciferase reporter activation – CHO-XBP1 cells, luminescence, counter-screen for apoptotic UPR arm activators, dose response (AID 489040);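 also: reporter read after six hours of compound exposure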).
With `O=C(Nc1nc(-c2ccccn2)cs1)c1ccc(Br)s1` the EC50 was “inactive”. `COC(=O)c1ccc(C(=O)OC)c(NC(=O)CSc2cccc[n+]2[O-])c1` gave an EC50 of 9.54 µM. For `Oc1c(CN2CCCCC2)cc(Br)c2cccnc12`, the EC50 was > 80 µM (inactive). For `CN(C)CC(CCC(CN(C)C)C(O)(c1ccccc1)c1ccccc1)C(O)(c1ccccc1)c1ccccc1` (configuration not stated), the EC50 was > 80 µM (inactive). With `S=C(Nc1ccccc1)c1ccccn1` the EC50 was > 80 µM (inactive). With `FC(F)(F)c1nnc2c(Sc3ccc(Cl)cc3)nc3ccccc3n12` the EC50 was > 80 µM (inactive). `O=C(CSc1cccc2cccnc12)N/N=C/c1cccnc1` was tested, and the EC50 was > 80 µM (inactive). In the case of `COc1ccc(C(=O)C(CN2CCCC2)c2ccccc2)cc1` (configuration not stated), the EC50 is reported as > 80 µM (inactive). With `COc1cc(CN2CCN(c3cc(C)ccc3C)CC2)ccc1O` the EC50 was > 80 µM (inactive). `CCOc1ccc2c(c1)C(=NNC(=O)c1ccncc1)c1cc(OCC)ccc1-2` was tested, and the EC50 was > 80 µM (inactive). Compound `Cc1ccc(C(=O)Cn2c(C(=O)/C=C/c3ccccc3)nc3ccccc32)cc1` has an EC50 of 18.3 µM. With `Cc1ccc(CN2CCN(/N=C/c3ccc(O)c(O)c3)CC2)cc1` the EC50 was > 80 µM (inactive). In the case of `Cc1ccc(NC(=O)c2nc(S(=O)(=O)Cc3ccccc3C)ncc2Cl)cc1C`, the EC50 is reported as > 80 µM (inactive). For `Cc1ccc(C(=O)NC(C#N)=C(Cl)Cl)cc1`, the EC50 was > 80 µM (inactive). With `CCOC(=O)c1ccc(N2C(=O)C=CC2=O)cc1` the EC50 was > 80 µM (inactive). For `CC(=O)c1cccc(NC(=O)CSc2ncc(C(=O)Nc3ccccc3)c(=O)n2C)c1`, the EC50 was > 80 µM (inactive). `O=C(Nc1nc(-c2ccc(F)c(F)c2)cs1)Nc1ccc(F)cc1F` was tested, and the EC50 was > 80 µM (inactive). In the case of `O=[N+]([O-])c1ccc(Sc2cccc3cccnc23)c([N+](=O)[O-])c1`, the EC50 is reported as > 80 µM (inactive). `CC(=O)c1ccc(NC(=O)COC(=O)c2ccccc2N=Nc2ccc(N(C)C)cc2)cc1` was tested, and the EC50 was 4.12 µM. With `Cc1ccc(S(=O)(=O)Nc2cccc3cccnc23)cc1` the EC50 was > 80 µM (inactive). For `Cc1ccc(NC(=O)Cn2ncc(Cl)c(Cl)c2=O)cc1S(=O)(=O)N1CCCCC1`, the EC50 was > 80 µM (inactive). `COC(=O)c1ccc(-n2c(C)cc(C(=O)CCl)c2C)cc1` was tested, and the EC50 was 9.06 µM. For `Oc1c(N=Nc2ccccn2)ccc2ccccc12`, the EC50 was > 80 µM (inactive). For `Oc1ccc2ccccc2c1N=Nc1ccccn1`, the EC50 was > 80 µM (inactive). For `CC(C)c1nnc(NC(=O)CCS(=O)(=O)c2nc(-c3cccs3)cc(C(F)(F)F)n2)s1`, the EC50 was > 80 µM (inactive). In the case of `CC(=O)/C(=C/c1ccccc1)C(=O)Nc1ccccc1C`, the EC50 is reported as > 80 µM (inactive). For `COc1ccc(-n2nc(C#N)c(Cl)cc2=O)cc1`, the EC50 was > 80 µM (inactive). For `Nc1nc(CC(=O)CSc2ccc(Cl)cc2)nc(Nc2ccc(F)cc2)n1`, the EC50 was > 80 µM (inactive). In the case of `COc1ccccc1-c1cc(C(F)(F)F)nc(S(=O)(=O)CCCC(=O)N2CCCCC2C)n1` (configuration not stated), the EC50 is reported as > 80 µM (inactive). In the case of `COc1cc(/C=C2\CC(C(C)(C)C)C/C(=C\c3cc(OC)c(OC)c(OC)c3)C2=O)cc(OC)c1OC` (configuration not stated), the EC50 is reported as > 80 µM (inactive). `COc1ccc(-n2c(C)cc(C(=O)CCl)c2C)cc1` showed an EC50 of 4.68 µM. Compound `O=C(N/N=C/c1ccc(O)c(O)c1)NC12CC3CC(CC(C3)C1)C2` has an EC50 of 14.2 µM. With `OCCNc1nc(Nc2ccc(Cl)c(Cl)c2)nc2ccccc12` the EC50 was > 80 µM (inactive). `O=C(/C=C/Sc1ccccc1)c1ccc(Cl)cc1` was tested, and the EC50 was > 80 µM (inactive). `COc1ccc(C(=O)/C=C2/C(=O)Nc3ccccc32)c(OC)c1` was tested, and the EC50 was > 80 µM (inactive). For `O=C(CSc1ccc2ccccc2c1)NCCc1ccc(O)c(O)c1`, the EC50 was > 80 µM (inactive). For `N#CC1=C(N)OC2=C(CC/C2=C\c2ccccc2)C1c1ccccc1` (configuration not stated), the EC50 was > 80 µM (inactive). With `Cc1ccc(NN2C(=O)C=C(c3ccccc3)C2=O)cc1` the EC50 was > 80 µM (inactive). With `COc1ccc(N=c2oc3c(OC)cccc3cc2C(=O)NCc2ccco2)cc1OC` the EC50 was > 80 µM (inactive). `CC1(C)CC(=O)C2=C(C1)Oc1nc3ccccc3cc1C2C(C#N)C#N` (configuration not stated) was tested, and the EC50 was > 80 µM (inactive). For `COc1ccc(-c2cc(C(F)(F)F)nc(S(C)(=O)=O)n2)cc1OC`, the EC50 was > 80 µM (inactive). For `C=C1C(=O)C=C[C@]2(C)C[C@@H]3OC(=O)[C@](C)(O)[C@H]3C[C@@H]12`, the EC50 was > 80 µM (inactive). `COC(=O)c1cc(=O)n(Cc2ccc3c(c2)OCO3)c(=Nc2ccc(F)c(Cl)c2)s1` was tested, and the EC50 was > 80 µM (inactive). With `C[C@@H]1C[C@@H]2O[C@H]2/C=C\C=C\C(=O)Cc2c(Cl)c(O)cc(O)c2C(=O)O1` the EC50 was > 80 µM (inactive). In the case of `S=C(Nc1ccccc1)Nc1nccs1`, the EC50 is reported as > 80 µM (inactive). `CCOc1cc(/C=C2/C(=N)N3C=CSC3=NC2=O)ccc1OCCCOc1ccccc1C` showed an EC50 of 20 µM. `Cc1cc(C(=O)CCl)c(C)n1-c1cccc(S(=O)(=O)N2CCOCC2)c1` was tested, and the EC50 was > 80 µM (inactive). `COc1ccc(C2c3ccc4ccccc4c3Oc3ncn(CCCN(C)C)c(=N)c32)cc1` (configuration not stated) was tested, and the EC50 was > 80 µM (inactive). `Oc1c(CN2CCN(c3ccc(F)cc3)CC2)cc(Cl)c2cccnc12` was tested, and the EC50 was > 80 µM (inactive). `O=C(NC1CCCC1)C(c1ccc(F)cc1)N(Cc1ccc(Cl)cc1)C(=O)CCl` (configuration not stated) was tested, and the EC50 was > 80 µM (inactive). For `CCOC(=O)c1c2ccc(OCC(=O)N/N=C/c3ccc(C)cc3)cc2n2ccccc12`, the EC50 was > 80 µM (inactive). For `CC1=CC(C)(C)Nc2ccc(OC(=O)CN3C(=O)C4CCCCC4C3=O)cc21` (configuration not stated), the EC50 was > 80 µM (inactive). For `CCn1cc(C(=O)NC(=S)Nc2sc3c(c2C(=O)OC)CCCCCC3)cn1`, the EC50 was “inactive”. With `Cc1ccc(/C=C/C(=O)c2ccc([N+](=O)[O-])o2)cc1` the EC50 was > 80 µM (inactive). With `Oc1ccc(/C=N/N2CCCCC2)cc1O` the EC50 was > 80 µM (inactive). In the case of `O=c1c2ccccc2nc(/C=C/c2ccc([N+](=O)[O-])o2)n1-c1ccc(O)cc1`, the EC50 is reported as > 80 µM (inactive). In the case of `COc1ccc(Cn2c(SCc3ccc(C)cc3)nc3cc(OC)c(OC)cc3c2=N)cc1Cl`, the EC50 is reported as > 80 µM (inactive). `COc1ccc(C(=O)NCC(=O)N/N=C/c2ccc([N+](=O)[O-])o2)cc1OC` was tested, and the EC50 was > 80 µM (inactive). With `Cc1ccc(-c2nc(SCC(=O)Nc3cc(C)on3)c3c(=O)n(C)c(=O)n(C)c3n2)cc1` the EC50 was “inactive”. With `CCCCCCCCCn1c2c(c(=N)c3c1CCC3)CCC2` the EC50 was > 80 µM (inactive). With `O=C1C(Cl)=C(NC(=O)c2ccccc2)C(=O)C(Cl)=C1NC(=O)c1ccccc1` the EC50 was > 80 µM (inactive). In the case of `N#CC12COC3(CCCCC3C1(C#N)C#N)OC2=N` (configuration not stated), the EC50 is reported as > 80 µM (inactive). `CCCN1Cc2cccc(C(=O)Nc3ccc(-c4nc5ccccc5[nH]4)cc3)c2C1=O` was tested, and the EC50 was > 80 µM (inactive). `Cc1ccc(C)c(NC(=O)/C(C#N)=C/c2cn(CC(=O)NCc3ccco3)c3ccccc23)c1` was tested, and the EC50 was 6.33 µM. In the case of `CCc1ccc2nc(N(CCCN(C)C)C(=O)c3ccc(S(=O)(=O)N(C)C4CCCCC4)cc3)sc2c1`, the EC50 is reported as > 80 µM (inactive). For `CCSC1(SCC)N=C(N)C2(C#N)C(c3ccc(OC)c(OC)c3OC)C12C#N` (configuration not stated), the EC50 was > 80 µM (inactive). With `S=c1[nH]nc(-c2cc(-c3ccccc3)n[nH]2)n1/N=C/C(Br)=C/c1ccccc1` the EC50 was > 80 µM (inactive). In the case of `Cc1nc([N+](=O)[O-])c(Br)n1CC(=O)c1ccc2ccccc2c1`, the EC50 is reported as > 80 µM (inactive). `CCc1ccccc1NC(=S)N=Nc1c(O)n(C)c2ccc(S(=O)(=O)N3CCOCC3)cc12` was tested, and the EC50 was > 80 µM (inactive). `COc1cc([N+](=O)[O-])cc(/C=N/NC(=O)c2ccc(NC(=O)c3ccc(C)cc3)cc2)c1O` was tested, and the EC50 was > 80 µM (inactive). `CC(C)N1C/C(=C/c2ccsc2)C(=O)/C(=C/c2ccsc2)C1` was tested, and the EC50 was > 80 µM (inactive). With `Cc1nc2ccccc2n1-c1nc(-c2ccco2)cc(C(F)(F)F)n1` the EC50 was > 80 µM (inactive). For `COc1ccc(NS(=O)(=O)c2ccc3ccccc3c2)c2ncccc12`, the EC50 was > 80 µM (inactive). In the case of `CN1CSC(=S)N(C)C1`, the EC50 is reported as > 80 µM (inactive). For `CCOc1cc(/C=N/Nc2cc(C)nc(-n3nc(C)cc3C)n2)ccc1O`, the EC50 was > 80 µM (inactive). With `COCc1ccc(O)c2ncccc12` the EC50 was “inactive”. `COc1cc(NC(=O)c2cncc(-c3ccc(C#N)cc3)c2)cc(C(=O)Nc2cccc(C(F)(F)F)c2)c1` gave an EC50 of 19.3 µM. Work on `COc1ccc(-c2cc3ccccc3oc2=O)cc1NC(=S)NC(=O)c1ccc2c(c1)OCCO2` yielded an EC50 of 4.27 µM. `FC(F)(F)c1nnc2c(Sc3ccccc3)nc3ccc(Cl)cc3n12` gave an EC50 of 9.74 µM. `CCOC(=O)/C(=C\c1cccc(O)c1)c1nc2sc(C)c(C)c2c(=O)[nH]1` was tested, and the EC50 was > 80 µM (inactive). In the case of `CCNc1ccccc1CP(=O)(c1ccccc1)c1ccccc1O` (configuration not stated), the EC50 is reported as > 80 µM (inactive). For `CSC(=S)N/N=C(\C)c1ccccc1`, the EC50 was > 80 µM (inactive). With `O=C(/C(=C/c1ccc(Cl)cc1)c1nc2ccccc2[nH]1)c1ccccc1` the EC50 was > 80 µM (inactive). In the case of `COc1ccc(N2CCN(Cc3cc(=O)oc4cc(-c5ccccc5)c(O)cc34)CC2)cc1`, the EC50 is reported as > 80 µM (inactive). With `Oc1c(CN2CCc3ccccc3C2)cc(Cl)c2cccnc12` the EC50 was > 80 µM (inactive). `O=C(COC(=O)c1ccccc1C(=O)c1ccc(Cl)c([N+](=O)[O-])c1)NC1CCCCCC1` was tested, and the EC50 was > 80 µM (inactive). For `COc1cc(/C=C2\COC/C(=C\c3ccc(O)c(OC)c3)C2=O)ccc1O`, the EC50 was > 80 µM (inactive). For `COc1ccc(C2OC34CCCCC3C(C#N)(C#N)C2(C#N)C(=N)O4)cc1` (configuration not stated), the EC50 was > 80 µM (inactive). In the case of `Cc1ccc(NC(=O)COc2ccc(/C=C3/SC(=Nc4ccccc4)N(Cc4cccnc4)C3=O)cc2)cc1`, the EC50 is reported as “inactive”. With `COc1ccc2cc(C)c3nnc(SCC(=O)Nc4nc(-c5ccc(F)cc5)cs4)n3c2c1` the EC50 was “inactive”. In the case of `C=CCN1C(=O)/C(=C/c2ccc3c(c2)CCCN3CCC)C(=O)NC1=S`, the EC50 is reported as > 80 µM (inactive). `COc1ccc(NC(=O)c2sc3nc(N4CCOCC4)c4c(c3c2N)CC(C)(C)OC4)c(OC)c1` was tested, and the EC50 was > 80 µM (inactive). In the case of `CC(=O)Oc1ccc(OC(C)=O)c(SCCCCCN2CCOCC2)c1`, the EC50 is reported as > 80 µM (inactive). For `Cc1cc(C)cc(NC(=O)/C(C#N)=C/c2cn(CC(=O)NCc3ccco3)c3ccccc23)c1`, the EC50 was > 80 µM (inactive). In the case of `COc1ccccc1C(=O)NC(=S)NNC(=O)c1sc2ccccc2c1Cl`, the EC50 is reported as “inactive”. `O=CC1=C(c2ccccc2)Oc2ccccc2O1` was tested, and the EC50 was > 80 µM (inactive). With `CCOC(=O)C(=CNc1nc(-c2ccccc2)c(C(=O)Nc2ccc(-c3ccccc3)cc2)s1)C(=O)OCC` the EC50 was “inactive”.
